pIC50: −log10 of the molar value.
Test system: 947758-054-R-J2-PDC spheroid growth, percent test/control
Assay: Anticancer human tumor 947758-054-R-J2-PDC patient-derived colon adenocarcinoma cell line growth inhibition [CLK]
Settings: spheroids with HUVEC and MSC; for pIC50: curve of first compound; for viability, T/C: stronger effect = lower value
Summary of the method: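 Multi-cell-type spheroids combined patient-derived tumor cells with HUVEC endothelial cells and human mesenchymal stem cells. Paired agents were dosed in half-log steps down from about clinical Cmax, or from 10 microM where Cmax was unknown.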

[1] = second compound 0.0316 µM, first compound 0.0316 µM
[2] = second compound 0.0316 µM, first compound 0.1 µM
[3] = second compound 0.0316 µM, first compound 0.316 µM
[4] = second compound 0.0316 µM, first compound 1 µM
[5] = second compound 0.1 µM, first compound 0.0316 µM
[6] = second compound 0.1 µM, first compound 0.1 µM
[7] = second compound 0.1 µM, first compound 0.316 µM
[8] = second compound 0.1 µM, first compound 1 µM
[9] = second compound 0.316 µM, first compound 0.0316 µM
[10] = second compound 0.316 µM, first compound 0.1 µM
[11] = second compound 0.316 µM, first compound 0.316 µM
[12] = second compound 0.316 µM, first compound 1 µM
[13] = second compound 1 µM, first compound 0.0316 µM
[14] = second compound 1 µM, first compound 0.1 µM
[15] = second compound 1 µM, first compound 0.316 µM
[16] = second compound 1 µM, first compound 1 µM
[17] = second compound 3.16 µM, first compound 0.0316 µM
[18] = second compound 3.16 µM, first compound 0.1 µM
[19] = second compound 3.16 µM, first compound 0.316 µM
[20] = second compound 3.16 µM, first compound 1 µM
[21] = second compound 10 µM, first compound 0.0316 µM
[22] = second compound 10 µM, first compound 0.1 µM
[23] = second compound 10 µM, first compound 0.316 µM
[24] = second compound 10 µM, first compound 1 µM
[25] = second compound 0.0316 µM, first compound 3.16 µM
[26] = second compound 0.0316 µM, first compound 10 µM
[27] = second compound 0.1 µM, first compound 3.16 µM
[28] = second compound 0.1 µM, first compound 10 µM
[29] = second compound 0.316 µM, first compound 3.16 µM
[30] = second compound 0.316 µM, first compound 10 µM
[31] = second compound 1 µM, first compound 3.16 µM
[32] = second compound 1 µM, first compound 10 µM
[33] = second compound 3.16 µM, first compound 3.16 µM
[34] = second compound 3.16 µM, first compound 10 µM
[35] = second compound 10 µM, first compound 3.16 µM
[36] = second compound 10 µM, first compound 10 µM
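Further: spheroids exposed to compounds for one week before readout.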
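Wherever viability, T/C is given: 100% = DMSO vehicle control wells.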

Q: With `COc1c(OCCCN2CCOCC2)ccc2c3n(c(=NC(=O)c4cnc(N)nc4)nc12)CCN3` + CN1CCN(c2cc(C(=O)Nc3cc4cc(-c5cnn(C)c5)ccc4cn3)ccn2)CC1 as the compound, how does the pIC50 (second compound 0.0316 µM) read?
A: 6.74

Q: What about the pIC50 (second compound 0.1 µM) of the same compound?
A: 7.54

Q: And the pIC50 (second compound 0.316 µM)?
A: > 8.50

Q: And the pIC50 (second compound 1 µM)?
A: > 8.50

Q: What about the pIC50 (second compound 3.16 µM) of the same compound?
A: > 8.50

Q: And the pIC50 (second compound 10 µM)?
A: > 8.50

Q: What about the viability, T/C (second compound 0.0316 µM, first compound 0.00316 µM) of the same compound?
A: 157%

Q: What about the viability, T/C (second compound 0.0316 µM, first compound 0.01 µM) of the same compound?
A: 133%

Q: What about the viability, T/C [1] of the same compound?
A: 90.8%

Q: What about the viability, T/C [2] of the same compound?
A: 75.6%

Q: And the viability, T/C [3]?
A: 28.7%

Q: What about the viability, T/C [4] of the same compound?
A: 18.1%

Q: And the viability, T/C (second compound 0.1 µM, first compound 0.00316 µM)?
A: 188%

Q: And the viability, T/C (second compound 0.1 µM, first compound 0.01 µM)?
A: 147%

Q: And the viability, T/C [5]?
A: 40.3%

Q: What about the viability, T/C [6] of the same compound?
A: 33.4%

Q: What about the viability, T/C [7] of the same compound?
A: 17.9%

Q: What about the viability, T/C [8] of the same compound?
A: 10%

Q: What about the viability, T/C (second compound 0.316 µM, first compound 0.00316 µM) of the same compound?
A: 7.04%

Q: What about the viability, T/C (second compound 0.316 µM, first compound 0.01 µM) of the same compound?
A: 6.09%

Q: And the viability, T/C [9]?
A: 3.95%

Q: What about the viability, T/C [10] of the same compound?
A: 2.44%

Q: And the viability, T/C [11]?
A: 0.75%

Q: What about the viability, T/C [12] of the same compound?
A: 1%

Q: And the viability, T/C (second compound 1 µM, first compound 0.00316 µM)?
A: 0.16%

Q: What about the viability, T/C (second compound 1 µM, first compound 0.01 µM) of the same compound?
A: 0.18%

Q: And the viability, T/C [13]?
A: 0.15%

Q: What about the viability, T/C [14] of the same compound?
A: 0.1%

Q: And the viability, T/C [15]?
A: 1.96%

Q: What about the viability, T/C [16] of the same compound?
A: 1.55%

Q: What about the viability, T/C (second compound 3.16 µM, first compound 0.00316 µM) of the same compound?
A: 0.48%

Q: What about the viability, T/C (second compound 3.16 µM, first compound 0.01 µM) of the same compound?
A: 0.95%

Q: What about the viability, T/C [17] of the same compound?
A: 0.19%

Q: And the viability, T/C [18]?
A: 0.15%

Q: And the viability, T/C [19]?
A: 1.63%

Q: And the viability, T/C [20]?
A: 2.02%

Q: And the viability, T/C (second compound 10 µM, first compound 0.00316 µM)?
A: 0.31%

Q: And the viability, T/C (second compound 10 µM, first compound 0.01 µM)?
A: 3.4%

Q: What about the viability, T/C [21] of the same compound?
A: 0.32%

Q: What about the viability, T/C [22] of the same compound?
A: 0.27%

Q: And the viability, T/C [23]?
A: 1.44%

Q: And the viability, T/C [24]?
A: 1.28%

Q: How did the pIC50 (second compound 0.0316 µM) turn out when `C=CC(=O)N1CCN(c2nc(=O)n(-c3c(C)ccnc3C(C)C)c3nc(-c4c(O)cccc4F)c(F)cc23)C(C)C1` (stereo unspecified) + CNC(=O)c1ccc(Nc2nc(OC3CCCC3)c3c(-c4ccc5nc(C)oc5c4)c[nH]c3n2)c(OC)c1 was run?
A: < 5.00

Q: What about the pIC50 (second compound 0.1 µM) of the same compound?
A: < 5.00

Q: What about the pIC50 (second compound 0.316 µM) of the same compound?
A: 5.21

Q: And the pIC50 (second compound 1 µM)?
A: > 7.50

Q: What about the pIC50 (second compound 3.16 µM) of the same compound?
A: > 7.50

Q: What about the pIC50 (second compound 10 µM) of the same compound?
A: > 7.50

Q: And the viability, T/C [1]?
A: 64.6%

Q: What about the viability, T/C [2] of the same compound?
A: 69.5%

Q: What about the viability, T/C [3] of the same compound?
A: 68.2%

Q: What about the viability, T/C [4] of the same compound?
A: 70.9%

Q: What about the viability, T/C [25] of the same compound?
A: 65.9%

Q: And the viability, T/C [26]?
A: 51.8%

Q: What about the viability, T/C [5] of the same compound?
A: 78.4%

Q: What about the viability, T/C [6] of the same compound?
A: 72.3%

Q: What about the viability, T/C [7] of the same compound?
A: 66.1%

Q: And the viability, T/C [8]?
A: 75.5%

Q: What about the viability, T/C [27] of the same compound?
A: 68%

Q: What about the viability, T/C [28] of the same compound?
A: 51.3%

Q: What about the viability, T/C [9] of the same compound?
A: 70.4%

Q: What about the viability, T/C [10] of the same compound?
A: 68.8%

Q: What about the viability, T/C [11] of the same compound?
A: 47.1%

Q: And the viability, T/C [12]?
A: 80.7%

Q: And the viability, T/C [29]?
A: 77.5%

Q: What about the viability, T/C [30] of the same compound?
A: 36.7%

Q: And the viability, T/C [13]?
A: 43.3%

Q: And the viability, T/C [14]?
A: 45.8%

Q: And the viability, T/C [15]?
A: 36.9%

Q: What about the viability, T/C [16] of the same compound?
A: 54.5%

Q: What about the viability, T/C [31] of the same compound?
A: 45%

Q: And the viability, T/C [32]?
A: 20%

Q: And the viability, T/C [17]?
A: 43.1%

Q: And the viability, T/C [18]?
A: 38.1%

Q: And the viability, T/C [19]?
A: 40.9%

Q: What about the viability, T/C [20] of the same compound?
A: 40.9%

Q: And the viability, T/C [33]?
A: 31.2%

Q: What about the viability, T/C [34] of the same compound?
A: 16%

Q: What about the viability, T/C [21] of the same compound?
A: 32.1%

Q: What about the viability, T/C [22] of the same compound?
A: 28.1%

Q: What about the viability, T/C [23] of the same compound?
A: 28.6%

Q: What about the viability, T/C [24] of the same compound?
A: 25.7%

Q: And the viability, T/C [35]?
A: 21.1%

Q: What about the viability, T/C [36] of the same compound?
A: 15.1%

Q: How did the pIC50 (second compound 0.0316 µM) turn out when `COc1ccc([C@@H](O)c2cc(-c3ncnc4cc(N5CCOCC5)ccc34)c(F)cc2Cl)nn1` + CNC(=O)c1ccc(Nc2nc(OC3CCCC3)c3c(-c4ccc5nc(C)oc5c4)c[nH]c3n2)c(OC)c1 was run?
A: 5.72

Q: And the pIC50 (second compound 0.1 µM)?
A: 6.05

Q: What about the pIC50 (second compound 0.316 µM) of the same compound?
A: 6.06

Q: And the pIC50 (second compound 1 µM)?
A: 6.94

Q: What about the pIC50 (second compound 3.16 µM) of the same compound?
A: > 7.50

Q: What about the pIC50 (second compound 10 µM) of the same compound?
A: > 7.50

Q: And the viability, T/C [1]?
A: 82.4%

Q: What about the viability, T/C [2] of the same compound?
A: 63.7%

Q: What about the viability, T/C [3] of the same compound?
A: 74.7%

Q: What about the viability, T/C [4] of the same compound?
A: 49.5%

Q: And the viability, T/C [25]?
A: 48.6%

Q: What about the viability, T/C [26] of the same compound?
A: 32.8%

Q: And the viability, T/C [5]?
A: 91.8%

Q: What about the viability, T/C [6] of the same compound?
A: 81.3%

Q: What about the viability, T/C [7] of the same compound?
A: 62.9%

Q: What about the viability, T/C [8] of the same compound?
A: 50.4%

Q: What about the viability, T/C [27] of the same compound?
A: 33.8%

Q: What about the viability, T/C [28] of the same compound?
A: 25.9%

Q: What about the viability, T/C [9] of the same compound?
A: 80.1%

Q: And the viability, T/C [10]?
A: 66.8%

Q: And the viability, T/C [11]?
A: 58.2%

Q: What about the viability, T/C [12] of the same compound?
A: 53.4%

Q: And the viability, T/C [29]?
A: 34.6%

Q: And the viability, T/C [30]?
A: 17.7%

Q: And the viability, T/C [13]?
A: 59%

Q: What about the viability, T/C [14] of the same compound?
A: 51.9%

Q: And the viability, T/C [15]?
A: 40%

Q: And the viability, T/C [16]?
A: 31.6%

Q: And the viability, T/C [31]?
A: 24.2%

Q: What about the viability, T/C [32] of the same compound?
A: 6.15%

Q: And the viability, T/C [17]?
A: 38%

Q: What about the viability, T/C [18] of the same compound?
A: 32.4%

Q: And the viability, T/C [19]?
A: 37.6%

Q: What about the viability, T/C [20] of the same compound?
A: 24.1%

Q: What about the viability, T/C [33] of the same compound?
A: 14.1%

Q: And the viability, T/C [34]?
A: 7.87%

Q: And the viability, T/C [21]?
A: 30.4%

Q: And the viability, T/C [22]?
A: 31.9%

Q: And the viability, T/C [23]?
A: 31%

Q: What about the viability, T/C [24] of the same compound?
A: 21.5%

Q: What about the viability, T/C [35] of the same compound?
A: 8.56%

Q: What about the viability, T/C [36] of the same compound?
A: 5.76%

Q: What does the source list for `CN1CCN(c2cc(C(=O)Nc3cc4cc(-c5cnn(C)c5)ccc4cn3)ccn2)CC1`?
A: viability, T/C (compound 0.316 µM): 5.15% [middle of 12 runs]; viability, T/C (compound 1 µM): 0.61% [middle of 11 runs]; viability, T/C (compound 3.16 µM): 0.65% [middle of 10 runs]; viability, T/C (compound 10 µM): 0.36% [middle of 11 runs]; IC50 (compound alone, run of 09/18/2023): 216 nM [middle of 10 runs]

From PubChem BioAssay AID2060605 (Molecular Pharmacology Branch, DTP, NCI, 2025)
